Assay results taken from ChEMBL document CHEMBL1146430, “Alternatamides A-D: new bromotryptamine peptide antibiotics from the Atlantic marine bryozoan Amathia alternata” (1997).

Assays:
Format in all cases: functional
[1] = system: Staphylococcus haemolyticus; assay: Antibacterial activity against Staphylococcus haemolyticus
[2] = system: Staphylococcus epidermidis; assay: Antibacterial activity against Staphylococcus epidermidis
Bacillus subtilis = assay: Antibacterial activity against Bacillus subtilis
Enterococcus faecalis = assay: Antibacterial activity against Enterococcus faecalis
Staphylococcus aureus = assay: Antibacterial activity against Staphylococcus aureus
Enterococcus faecium = assay: Antibacterial activity against Enterococcus faecium
Streptococcus pyogenes = assay: Antibacterial activity against Streptococcus pyogenes

Measured: MIC

CN[C@@H](CC(C)C)C(=O)NCCc1c(Br)n(C)c2cc(Br)c(Br)cc12 [ALTEMATAMIDE A]
4 µg/mL: [1] | [2] | Bacillus subtilis | Enterococcus faecalis | Staphylococcus aureus | Enterococcus faecium | Streptococcus pyogenes

CN[C@@H](CC(C)C)C(=O)NCCc1c(Br)[nH]c2cc(Br)c(Br)cc12 [ALTEMATAMIDE B]
4 µg/mL: [1] | [2] | Bacillus subtilis | Enterococcus faecalis | Staphylococcus aureus | Enterococcus faecium | Streptococcus pyogenes

CN[C@@H](CC(C)C)C(=O)NCCc1c(Br)[nH]c2ccc(Br)cc12 [ALTEMATAMIDE C]
4 µg/mL: [1] | [2] | Bacillus subtilis | Enterococcus faecalis | Staphylococcus aureus | Enterococcus faecium | Streptococcus pyogenes
